Assay results: PubChem BioAssay (NCI)
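The compound was tested at five concentrations on cells cultured in 96-well plates, with a 48-hour exposure period. At the TGI there is no net growth.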

Experiments:
Experiment in all cases: DTP human tumour cell line panel, 48 h
MALME-3M melanoma = tested on: MALME-3M melanoma
MOLT-4 leukemia = tested on: MOLT-4 leukemia
SN12C renal = tested on: SN12C renal
HOP-92 NSCLC = tested on: HOP-92 NSCLC
NCI-H460 lung = tested on: NCI-H460 lung
OVCAR-4 ovarian = tested on: OVCAR-4 ovarian
M14 melanoma = tested on: M14 melanoma
UACC-62 melanoma = tested on: UACC-62 melanoma
CAKI-1 renal = tested on: CAKI-1 renal
UACC-257 melanoma = tested on: UACC-257 melanoma
HT29 colon = tested on: HT29 colon
SF-539 CNS = tested on: SF-539 CNS
T-47D breast = tested on: T-47D breast
NCI-H23 lung = tested on: NCI-H23 lung

SMILES	TGI (MALME-3M melanoma) [µM]	TGI (MOLT-4 leukemia) [µM]	TGI (SN12C renal) [µM]	TGI (HOP-92 NSCLC) [µM]	TGI (NCI-H460 lung) [µM]	TGI (OVCAR-4 ovarian) [µM]	TGI (M14 melanoma) [µM]	TGI (UACC-62 melanoma) [µM]	TGI (CAKI-1 renal) [µM]	TGI (UACC-257 melanoma) [µM]	TGI (HT29 colon) [µM]	TGI (SF-539 CNS) [µM]	TGI (T-47D breast) [µM]	TGI (NCI-H23 lung) [µM]
CCOC(=O)c1ccc(Nc2cnc3ccc(C(F)(F)F)cc3n2)cc1	79.2	24.5	27.2	23.5	27.2	32	> 100	33.5	30.7	56	24.1	63.4	46.7	28.5
c1ccc(CSC(SCc2ccccc2)c2ccc3c(c2)OCO3)cc1	> 10	> 10	> 10	> 10	> 10	> 10	> 10	> 10	> 10	> 10	> 10	> 10	> 10	> 10
O=C(O)CO/N=C1/C(c2c(O)[nH]c3ccccc23)=Nc2ccccc21	99.5	> 100	> 100	> 100	> 100	> 100	> 100	> 100	> 100	> 100	> 100	> 100	> 100	> 100
O=C1Nc2ccc(Br)cc2/C1=C/C(=O)c1ccccc1	16.8	> 26.4	10.5	12.5	36.9	30.5	28.1	32.9	20	29	3.39	13	32.1	23.8
CC(=O)NC1C(OCc2ccccc2)OC(CO)C(O)C1OCC(=O)N1CCCC1C(=O)NC(CCC(=O)NCCCCCNc1c2ccccc2nc2cccc([N+](=O)[O-])c12)C(N)=O (configuration not stated)	0.0425	4.55	0.0753	0.101	0.0171	3.98	0.0591	0.0751	0.134	0.327	12.5	0.097	8.41	0.904
Nc1cc(N)c(N=Nc2cccc3c(S(=O)(=O)O)cccc23)cc1N=Nc1cc([N+](=O)[O-])ccc1O	64	> 100	> 100	98.7	74.1	> 100	> 100	59.2	> 100	74.5	> 100	> 100	> 100	> 100
CC(C)OP(=O)(OC(C)C)C(Nc1cccc(C(F)(F)F)c1)c1ccccc1 (configuration not stated)	> 100	65.5	> 100	> 100	> 100	> 100	> 100	> 100	> 100	> 100	> 100	> 100	> 100	> 100
COC(=O)C1(C)OC(C)=NC1(C(=O)OC)C(=O)OC (configuration not stated)	> 100	> 100	> 100	> 100	> 100	> 100	> 100	> 100	> 100	> 100	> 100	> 100	> 100	> 100
COc1cccc(C(=O)N[C@@H]2[C@H](O)[C@@H](CO)O[C@H]2n2cnc3c(N)ncnc32)c1	> 100	> 100	> 100	> 100	> 100	> 100	> 100	> 100	> 100	> 100	> 100	> 100	> 100	> 100
C=C(CC)C[C@@H]1C[C@]2(C(=O)OC)c3[nH]c4ccccc4c3CCN2C1=O	72.5	> 100	41.3	38.1	53.6	> 100	36.5	36.2	48.6	41.9	42	30.9	> 100	49.7
Oc1ccccc1-n1nc2ccc3nonc3c2n1	> 100	> 100	> 100	> 100	> 100	> 100	> 100	> 100	> 100	> 100	> 100	> 100	> 100	> 100
Nc1nc(NCCOCP(=O)(O)O)c(N)c(=O)[nH]1	> 100	> 100	> 100	> 100	> 100	> 100	> 100	> 100	> 100	> 100	> 100	> 100	> 100	> 100
S=C(Nc1cccc(C2(N3CCCCC3)CCCCC2)c1)Nc1cccc(C2(N3CCCCC3)CCCCC2)c1	36.1	42.8	> 100	43.9	36.7	> 100	35.5	33.3	> 100	33.4	66.1	31.3	36.6	> 100
CCCc1cc(-c2ccc(-c3cc(CCC)c(C=O)[nH]3)s2)[nH]c1C=O	> 100	> 100	> 100	> 100	> 100	> 100	> 100	> 100	> 100	> 100	> 19.9	> 100	> 100	> 86.1
OC1(c2ccc3ccccc3c2)c2c(c3ccccc3c3ccccc23)C2=NCCN21 (configuration not stated)	38.1	> 100	> 63.6	70.3	> 40.5	13.9	4.29	> 55.1	> 100	> 63.5	8.63	13.1	> 40.6	47.2
CCCCCCC(=O)OC[n+]1cccc(-c2c(COC(=O)NC(C)C)c(COC(=O)NC(C)C)c3n2CCC3)c1	98.5	> 80.7	> 100	66.4	> 100	> 69.1	> 100	72.9	47.8	> 100	> 100	> 75	> 100	> 74.1
CC1(C)CC2(C)ON=C(c3ccccc3)N2c2ccccc2N1 (configuration not stated)	55.3	75.6	84	61.4	46.9	> 100	40.6	27.9	60.2	58.3	29.9	40.1	56.7	82.1
CCCN(CCC)C(=O)c1c(Cl)c2cccnc2n2c(C)cnc12	> 100	> 100	> 100	> 100	> 100	> 100	> 100	> 100	79.7	> 100	> 100	> 100	> 100	> 100
